Test results as given in ChEMBL document CHEMBL4118148, “Design, synthesis and cardiovascular evaluation of some aminoisopropanoloxy derivatives of xanthone” (Bioorg Med Chem, 2018).
Calls of active or inactive are those of the source. The calls are words filed in the database; no cut-off is given here.

Key:
Rattus norvegicus [1] = experiment: Hypotensive activity in normotensive Wistar rat assessed as diastolic blood pressure at 5 mg/kg, iv measured after 60 mins (reference value: 86.5 to 119.4 mmHg); assay type: functional
Blood = experiment: Anti-aggregative activity in Wistar rat whole blood assessed as inhibition of collagen-induced aggregation preincubated for 3 mins followed by collagen induction measured for 6 mins; assay type: functional, tissue-based
Rattus norvegicus [2] = experiment: Cardiotoxicity in Wistar rat assessed as effect on heart rate at 5 mg/kg, iv measured after 5 mins (reference value: 323 to 374.5 bpm); assay type: toxicity, organism-based; settings: in vivo
[3] = molecular target: T1, Adrenergic receptor alpha-1 (Rattus norvegicus, UniProt P15823+P23944+P43140); experiment: Displacement of [3H][…]prazosin from adrenergic alpha1 receptor in Wistar rat cortex incubated for 30 mins by microbeta liquid scintillation counting analysis
T1 sequence (P15823 whole entry): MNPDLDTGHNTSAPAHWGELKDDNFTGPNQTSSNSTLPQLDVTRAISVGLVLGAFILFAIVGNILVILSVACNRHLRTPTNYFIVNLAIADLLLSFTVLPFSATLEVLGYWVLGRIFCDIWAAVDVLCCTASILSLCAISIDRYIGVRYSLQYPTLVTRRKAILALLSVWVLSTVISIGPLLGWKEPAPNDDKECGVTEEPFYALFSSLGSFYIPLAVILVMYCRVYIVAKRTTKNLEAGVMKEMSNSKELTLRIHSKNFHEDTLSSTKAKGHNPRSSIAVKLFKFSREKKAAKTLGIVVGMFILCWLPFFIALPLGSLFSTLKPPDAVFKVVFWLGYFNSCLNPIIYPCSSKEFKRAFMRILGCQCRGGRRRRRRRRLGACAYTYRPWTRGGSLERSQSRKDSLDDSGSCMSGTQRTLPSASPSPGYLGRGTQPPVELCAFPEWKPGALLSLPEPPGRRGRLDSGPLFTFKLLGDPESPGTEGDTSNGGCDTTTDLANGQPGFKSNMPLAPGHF
T1 sequence (P23944 whole entry): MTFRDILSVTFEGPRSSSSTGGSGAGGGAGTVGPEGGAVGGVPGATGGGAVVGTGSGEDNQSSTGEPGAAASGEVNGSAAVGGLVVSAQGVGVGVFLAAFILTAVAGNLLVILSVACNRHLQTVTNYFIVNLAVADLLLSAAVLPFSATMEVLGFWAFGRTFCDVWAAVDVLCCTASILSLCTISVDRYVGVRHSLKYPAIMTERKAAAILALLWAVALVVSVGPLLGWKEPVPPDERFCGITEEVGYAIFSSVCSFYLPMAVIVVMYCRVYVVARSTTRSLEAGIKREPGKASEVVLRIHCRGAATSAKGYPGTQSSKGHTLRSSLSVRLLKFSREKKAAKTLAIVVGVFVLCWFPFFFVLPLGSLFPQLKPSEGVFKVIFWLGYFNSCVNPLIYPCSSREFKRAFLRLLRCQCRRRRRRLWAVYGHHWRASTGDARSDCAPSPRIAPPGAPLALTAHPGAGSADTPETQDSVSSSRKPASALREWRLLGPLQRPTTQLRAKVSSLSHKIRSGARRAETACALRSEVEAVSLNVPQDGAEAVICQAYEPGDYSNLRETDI
T1 sequence (P43140 whole entry): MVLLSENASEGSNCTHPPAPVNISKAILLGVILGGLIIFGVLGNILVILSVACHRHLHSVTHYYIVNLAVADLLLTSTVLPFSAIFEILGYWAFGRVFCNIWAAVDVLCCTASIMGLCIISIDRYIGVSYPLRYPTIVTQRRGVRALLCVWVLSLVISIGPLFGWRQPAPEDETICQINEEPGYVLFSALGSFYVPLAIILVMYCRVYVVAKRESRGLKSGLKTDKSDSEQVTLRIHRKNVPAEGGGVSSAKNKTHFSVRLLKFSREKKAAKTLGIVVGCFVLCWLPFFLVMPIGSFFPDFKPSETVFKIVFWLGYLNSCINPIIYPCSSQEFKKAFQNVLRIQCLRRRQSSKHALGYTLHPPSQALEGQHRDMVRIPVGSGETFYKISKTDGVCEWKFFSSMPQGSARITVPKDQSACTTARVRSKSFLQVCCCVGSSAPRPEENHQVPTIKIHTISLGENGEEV

Rattus norvegicus [4] = experiment: Hypotensive activity in normotensive Wistar rat assessed as systolic blood pressure at 5 mg/kg, iv measured after 5 mins (reference value: 119.2 to 148.6 mmHg); assay type: functional
Rattus norvegicus [5] = experiment: Hypotensive activity in normotensive Wistar rat assessed as diastolic blood pressure at 5 mg/kg, iv measured after 5 mins (reference value: 86.5 to 119.4 mmHg); assay type: functional
Rattus norvegicus [6] = experiment: Cardiotoxicity in Wistar rat assessed as effect on QRS interval time at 5 mg/kg, iv measured after 15 mins (reference value: 16.7 to 20.7 ms); assay type: toxicity, organism-based; settings: in vivo, 0.25 h
[7] = molecular target: Adrenergic receptor alpha-2 (Rattus norvegicus) (UniProt P22086+P19328+P22909); experiment: Displacement of [3H]-clonidine from adrenergic alpha2 receptor in Wistar rat cortex at 10^-5 M incubated for 25 mins by microbeta liquid scintillation counting analysis
Rattus norvegicus [8] = experiment: Cardiotoxicity in Wistar rat assessed as effect on QT interval time at 5 mg/kg, iv measured after 5 mins (reference value: 57.7 to 61 ms); assay type: toxicity, organism-based; settings: in vivo
Rattus norvegicus [9] = experiment: Hypotensive activity in normotensive Wistar rat assessed as systolic blood pressure at 5 mg/kg, iv measured after 20 mins (reference value: 119.2 to 148.6 mmHg); assay type: functional
Rattus norvegicus [10] = experiment: Cardiotoxicity in Wistar rat assessed as effect on QT interval time at 5 mg/kg, iv measured after 15 mins (reference value: 57.7 to 61 ms); assay type: toxicity, organism-based; settings: in vivo, 0.25 h
Rattus norvegicus [11] = experiment: Cardiotoxicity in Wistar rat assessed as effect on QTC interval time at 5 mg/kg, iv measured after 1 min (reference value: 136.7 to 146.2 ms); assay type: toxicity, organism-based; settings: in vivo
Rattus norvegicus [12] = experiment: Cardiotoxicity in Wistar rat assessed as effect on QT interval time at 5 mg/kg, iv measured after 1 min (reference value: 57.7 to 61 ms); assay type: toxicity, organism-based; settings: in vivo
Rattus norvegicus [13] = experiment: Hypotensive activity in normotensive Wistar rat assessed as systolic blood pressure at 5 mg/kg, iv measured after 60 mins (reference value: 119.2 to 148.6 mmHg); assay type: functional
Rattus norvegicus [14] = experiment: Cardiotoxicity in Wistar rat assessed as effect on QRS interval time at 5 mg/kg, iv measured after 1 min (reference value: 16.7 to 20.7 ms); assay type: toxicity, organism-based; settings: in vivo
Rattus norvegicus [15] = experiment: Hypotensive activity in normotensive Wistar rat assessed as systolic blood pressure at 5 mg/kg, iv measured after 10 mins (reference value: 119.2 to 148.6 mmHg); assay type: functional
Rattus norvegicus [16] = experiment: Cardiotoxicity in Wistar rat assessed as effect on QTC interval time at 5 mg/kg, iv measured after 15 mins (reference value: 136.7 to 146.2 ms); assay type: toxicity, organism-based; settings: in vivo, 0.25 h
Rattus norvegicus [17] = experiment: Cardiotoxicity in Wistar rat assessed as effect on PQ interval time at 5 mg/kg, iv measured after 1 min (reference value: 52 to 57 ms); assay type: toxicity, organism-based; settings: in vivo
Rattus norvegicus [18] = experiment: Cardiotoxicity in Wistar rat assessed as effect on PQ interval time at 5 mg/kg, iv measured after 15 mins (reference value: 52 to 57 ms); assay type: toxicity, organism-based; settings: in vivo, 0.25 h

| SMILES | IC50 (Blood) [µM] | IC50 [3] [µM] | Activity [7] | Activity (Rattus norvegicus [1]) [mmHg] | inhibition (Blood) | Activity (Rattus norvegicus [2]) [bpm] | Activity (Rattus norvegicus [4]) [mmHg] | Activity (Rattus norvegicus [5]) [mmHg] | Time (Rattus norvegicus [6]) [ms] | Time (Rattus norvegicus [8]) [ms] | Activity (Rattus norvegicus [9]) [mmHg] | Time (Rattus norvegicus [10]) [ms] | Time (Rattus norvegicus [11]) [ms] | Time (Rattus norvegicus [12]) [ms] | Activity (Rattus norvegicus [13]) [mmHg] | Time (Rattus norvegicus [14]) [ms] | Activity (Rattus norvegicus [15]) [mmHg] | Time (Rattus norvegicus [16]) [ms] | Time (Rattus norvegicus [17]) [ms] | Time (Rattus norvegicus [18]) [ms] | also measured |
| --- | --- | --- | --- | --- | --- | --- | --- | --- | --- | --- | --- | --- | --- | --- | --- | --- | --- | --- | --- | --- | --- |
| Cl.O=c1c2ccccc2oc2cc(OCC(O)CN3CCN(c4ccccn4)CC3)ccc12 (racemic) | 77 | 0.3556 | inactive | 74.7 | Dose-dependent effect | 313 | 114.7 | 81 | 21.3 | 58.3 | 108.8 | 59 | 140.2 | 59 | 102.5 | 18.7 | 110.3 | 133.9 | 55.3 | 56 | – |
| Cl.O=c1c2ccccc2oc2c(OCC(O)CN3CCN(c4ccccn4)CC3)cccc12 (racemic) | 64.1 | 0.171 | inactive | 96.6 | Dose-dependent effect | 356 | 136.8 | 110.8 | 19.2 | 59.5 | 129.8 | 60.2 | 145.4 | 58.7 | 126.4 | 18.5 | 131.4 | 144 | 58.2 | 59 | – |
| COc1ccc(CCNCC(O)COc2cccc3c(=O)c4ccccc4oc23)cc1OC.Cl (racemic) | – | – | inactive | 98.6 | – | 254.7 | 135.4 | 101.4 | 21.3 | 66.7 | 127 | 63.3 | 128.1 | 61.3 | 129.8 | 22.8 | 135.6 | 132.7 | 62.7 | 59.3 | Ki [3]: 0.274 µM |
| COc1ccccc1CNCC(O)COc1cccc2c(=O)c3ccccc3oc12.Cl (racemic) | 86.8 | 1.87 | inactive | 94.3 | Dose-dependent effect | 243.7 | 149.3 | 107.2 | 21.3 | 64.7 | 133 | 66.7 | 151.4 | 65.5 | 125.3 | 22 | 147.7 | 139.3 | 60.7 | 57.7 | – |

The remaining molecules from weak to strong by IC50 (Blood), led by results:

| IC50 (Blood) [µM] | IC50 [3] [µM] | Activity [7] | SMILES | Activity (Rattus norvegicus [1]) [mmHg] | inhibition (Blood) | Activity (Rattus norvegicus [2]) [bpm] | Activity (Rattus norvegicus [4]) [mmHg] | Activity (Rattus norvegicus [5]) [mmHg] | Time (Rattus norvegicus [6]) [ms] | Time (Rattus norvegicus [8]) [ms] | Activity (Rattus norvegicus [9]) [mmHg] | Time (Rattus norvegicus [10]) [ms] | Time (Rattus norvegicus [11]) [ms] | Time (Rattus norvegicus [12]) [ms] | Activity (Rattus norvegicus [13]) [mmHg] | Time (Rattus norvegicus [14]) [ms] | Activity (Rattus norvegicus [15]) [mmHg] | Time (Rattus norvegicus [16]) [ms] | Time (Rattus norvegicus [17]) [ms] | Time (Rattus norvegicus [18]) [ms] | also measured |
| --- | --- | --- | --- | --- | --- | --- | --- | --- | --- | --- | --- | --- | --- | --- | --- | --- | --- | --- | --- | --- | --- |
| 49.5 | 0.1095 | inactive | COc1ccccc1OCCNCC(O)COc1cccc2c(=O)c3ccccc3oc12.Cl (racemic) | 80 | Dose-dependent effect | 296 | 121.6 | 89.7 | 18.7 | 67.3 | 97.7 | 63.3 | 157.2 | 70 | 106.2 | 19 | 106.5 | 131.1 | 56 | 57.3 | Ki [3]: 0.8755 µM |
| 33.4 | 0.3498 | inactive | COc1ccccc1CCNCC(O)COc1cccc2c(=O)c3ccccc3oc12.Cl (racemic) | 89.6 | Dose-dependent effect | 336 | 146.2 | 108.6 | 17 | 61 | 128.2 | 60 | 149.3 | 60.5 | 117 | 18 | 133.4 | 148.5 | 52 | 51 | Ki [3]: 4.676 µM |
| 33 | – | inactive | CC(C)(C)NCC(O)COc1cccc2c(=O)c3ccccc3oc12.Cl (racemic) | – | Dose-dependent effect | – | – | – | – | – | – | – | – | – | – | – | – | – | – | – | Ki [3]: 0.814 µM |
